According to patent publication US20200129450A1, “COMPOSITION COMPRISING OSMUNDACETONE OR PHARMACEUTICALLY ACCEPTABLE SALT THEREOF FOR PREVENTING OR TREATING BONE DISEASE” (KORPHARM CO., LTD., priority 2016, published 2020):
pIC50: −log10 of the molar value. “Also recorded” adds a separate entry of the source.

Experiments:
Format in all cases: cell-based
[1] = tested on: osteoclasts differentiated from mouse bone marrow cells; assay: TRAP assay, osteoclast proliferation and differentiation inhibitory activity; settings: for pIC50: tested at 1, 4, 7 and 10 μM, TRAP-positive multinucleated cells
Description: Bone marrow cells were collected from the femur and shin bones of 5-8 week old male C57BL/6 mice. Muscles were removed from the bones, and stored in cold phosphate buffered saline (PBS; # CAP08-050, GenDEPOT, Katy, Tex., USA).
Both ends of each bone were cut, and the bone marrow was flushed with a flushing medium (serum-free α-MEM, 2 mM ethylenediaminetetraacetic acid) kept cool, using a 25 G needle.
Bone marrow cells were collected by centrifugation at 3,000 rpm for 3 min using Labogene 1248R (Labogene, Lynge, Denmark), and then resuspended in a wash medium. Thereafter, 8 mL of the collected bone marrow cells were overlaid on 6 mL of a lymphocyte isolation medium (LSM; #50494, MP Biomedicals, Santa Ana, Calif., USA), followed by centrifugation at 1,600 rpm for 20 minutes, thereby isolating mononuclear cells.
The mononuclear cell bands were collected from the media interface, and incubated using complete α-MEM (containing 10% fatal bovine serum (FBS; Capricorn Scientific, Ebsdorfergrund, Germany) and 1% (v/v) antibiotic (including 100 U/mL penicillin G and […] streptomycin)) in the conditions of 37° C. and 5% CO2 while the medium was exchanged every three days.
In order to promote the differentiation of osteoclasts, 1×10^5 cells were incubated in 0.5 mL of the medium per well in a 48-well plate, in the presence of osteoclast differentiation factors, M-CSF (60 ng/mL) and RANKL (150 ng/mL), purchased from PeproTec (Seoul, Korea). As known, macrophages/monocytes derived from one bone marrow differentiated into mature multinucleated osteoclasts after 6 days (Gurt et al., 2015).
The tibia and femur of 6-8 week old male C57BL/6 mice were aseptically resected, and bone marrow cells were aseptically collected using a syringe (21 G, Korea Green Cross). The bone marrow cells were floated in 500 μL of α-MEM medium (Gibco BRL Co.) containing sodium bicarbonate (2.0 g/L), streptomycin (100 mg/L), and penicillin ([…]), dispensed in a 48-well plate, and assayed in triplicate. Mononuclear cells as precursor cells of osteoclasts were treated with RANKL and M-CSF as differentiation promoting factors, and thus differentiated into osteoclasts within 5-7 days.
2-1) Sample preparation: The hot-water extract, EA extract, or fraction of Osmunda japonica were prepared by the same methods as in section 1 of <Example 1>. The EA-2 extract was dissolved in a minimum amount of DMSO, and then diluted with water to 70% of the original volume of the hot-water extract assuming that the yield of EA-2 extraction was approximately 70%. 2-2) Sample administration: The sample was continuously administered to a medium at 1:20 (v/v; 25 μL of the sample per 500 μL of the medium) from day 1 of incubation of bone marrow cells, while the medium was exchanged every 2-3 days. 2-3) Measurement of osteoclast differentiation Osteoclasts were defined by TRAP-positive multinucleated cells stained with TRAP. As for TRAP stain solution, 5 mg of naphthol AS-MS phosphate (Sigma N-4875) as a base and 25 mg of Fast Red Violet LB salt as a color developing reagent were dissolved in about 0.5 mL of N,N-dimethylformamide, and then mixed with 0.1N NaHCO3 buffer solution (50 mL) containing 50 mM tartaric acid. The reaction reagent was stored in a refrigerator before use.
After bone marrow cells were incubated in a medium containing differentiation promoting factors for 7 days, the medium was removed, and the cells were washed with PBS, and then immobilized with PBS containing 10% formalin for 2-5 minutes. Thereafter, the cells were immobilized with a 1:1 mixture solution of ethanol and acetone, followed by drying. The immobilized cells were treated with the TRAP stain solution for 15 minutes, and washed with PBS, and then the degree of cell staining was observed by a microscope.
In the microscope field of view, cells having two or more nuclei in the TRAP-positive cells were determined to be osteoclasts, and the number of cells was measured. […]

[2] = tested on: A549 human lung carcinoma; assay: MTT assay cytotoxicity; settings: cancer cell
Description: (§1) AGS human stomach adenocarcinoma cells (# KCLB 21739), A549 human lung carcinoma cells (# KCLB 10185), Caki-1 human kidney carcinoma cells (# KCLB 30046), T24 human bladder carcinoma cells (# KCLB 30004), TC-1 P3 HPV-16E7-expressing mouse pulmonary epithelial cells, MHC class I (provided by Tae-Woo Kim, a professor of Korea University) were incubated using RPMI (Rosewell Park Memorial Institute) 1640 (# RPMI-A, Capricorn Scientific, Ebsdorfergrund, Germany) in the conditions of 37° C. and 5% CO2.
(§2) The compound isolated from Osmunda japonica, prepared in section 1 of <Example 1>, was investigated for cytotoxicity using MTT assay.
(§3) MTT assay was as follows.
(§4) Cells were incubated at 1×10^3 cells/well in a 96-well plate containing DMEM with 10% fetal bovine serum (FBS) at 5% CO2 and 37° C., and then osmundacetone was added to the cell medium, followed by incubation for 24 hours. Thereafter, 100 μL of MTT (0.5 mg/ml PBS) was administered, followed by incubation for 2 hours. Thereafter, the medium was removed from each well, and 100 μL of DMSO was added. After incubation for 10 minutes, the absorbance was measured using a microplate reader (SPCTRA MAX 340PC, Molecular Devices, USA) at 570 nm. The absorbance is an indicator showing the number of living cells, and calculated by the following equation. The reproducibility thereof was validated by three experiments. […]

[3] = tested on: AGS human stomach adenocarcinoma; assay: MTT assay cytotoxicity; settings: 24 hours
Description: as §1, §2, §3, §4

SMILES: CC(=O)/C=C/c1ccc(O)c(O)c1 [Osmundacetone, (3E)-4-(3,4-dihydroxyphenyl)-3-buten-2-one]
- formation of giant osteoclasts, number compared with the positive control group ([1]; 1 μM): smaller compared with the positive control group
- formation of giant osteoclasts / differentiation of bone marrow mononuclear cells into osteoclasts ([1]; 10 μM osmundacetone (printed 10M)): significantly inhibited; also recorded: almost completely inhibited
- pIC50 ([1]; Mus musculus, Osteoclast): ≥ 5.10
- inhibition at 7 µM ([1]; Mus musculus, Osteoclast, 7 μM, read-out: inhibition of differentiation of bone marrow mononuclear cells into osteoclasts): 3 to 40%
- inhibition at 10 µM ([1]; Mus musculus, Osteoclast, 10 μM, read-out: inhibition of differentiation of bone marrow mononuclear cells into osteoclasts): ≥ 95%
- proliferation of osteoclast precursor cells ([1]; osmundacetone 10M as printed): significantly inhibited
- pIC50 [1]: 5.10
- LD50 (μM) Based on MIT Assay [2]: >5,000 μM
- LD50 (MTT assay) [3]: 59.9 ± 6.1 µM
